Source: patent publication US20090149455A1, “Use of Triazolopyrimidines for Controlling Plant Diseases on Legumes” (Bayer CropScience AG, priority 2005, published 2009)

Assay: log p
Assay type: physicochemical
Conditions: not given

log p	SMILES
3.69	C=C(C)CN(CC)c1c(-c2ccccc2Cl)c(Cl)nc2ncnn12 [Example 105]
3.44	C=C(C)CN(CC)c1c(-c2ccccc2)c(Cl)nc2ncnn12 [Example 106]
3.17	CC(C)(C)CNc1c(-c2ccccc2)c(Cl)nc2ncnn12 [Example 109]
3	Fc1c(F)c(F)c(-c2c(Cl)nc3ncnn3c2NCC(F)(F)F)c(F)c1F [Example 113]
2.97	CC(C)CNc1c(-c2ccccc2Cl)c(Cl)nc2ncnn12 [Example 126]
2.79	CC(C)CNc1c(-c2ccccc2)c(Cl)nc2ncnn12 [Example 127]
2.65	CC(C)Nc1c(-c2ccccc2Cl)c(Cl)nc2ncnn12 [Example 131]
2.9	CC(C)Nc1c(-c2ccc(F)c(Cl)c2)c(Cl)nc2ncnn12 [Example 140]
2.42	CC(C)Nc1c(-c2ccccc2F)c(Cl)nc2ncnn12 [Example 141]
2.79	CC(C)Nc1c(-c2ccc(F)cc2Cl)c(Cl)nc2ncnn12 [Example 142]
3.05	CC(C)Nc1c(-c2c(F)c(F)c(F)c(F)c2F)c(Cl)nc2ncnn12 [Example 144]
2.56	CC(C)Nc1c(-c2ccc(F)cc2F)c(Cl)nc2ncnn12 [Example 145]
2.45	CC(C)Nc1c(-c2ccccc2)c(Cl)nc2ncnn12 [Example 147]
2.9	CCCCNc1c(-c2ccc(F)cc2F)c(Cl)nc2ncnn12 [Example 149]
2.43	CCCNc1c(-c2ccccc2F)c(Cl)nc2ncnn12 [Example 150]
3.05	CCCNc1c(-c2c(F)c(F)c(F)c(F)c2F)c(Cl)nc2ncnn12 [Example 152]
3.9	CC(C)(C)Nc1c(-c2c(F)cc(C(F)(F)F)cc2Cl)c(Cl)nc2ncnn12 [Example 153]
3.05	CC(C)(C)Nc1c(-c2c(F)cc(F)cc2F)c(Cl)nc2ncnn12 [Example 154]
2.74	CN(C)c1c(-c2c(F)c(F)c(F)c(F)c2F)c(Cl)nc2ncnn12 [Example 155]
2.07	Fc1cccc(F)c1-c1c(Cl)nc2ncnn2c1N1CCCO1 [Example 157]
3.68	CC1CCN(c2c(-c3c(F)cccc3Cl)c(Cl)nc3ncnn23)CC1 [Example 158]
3.41	Fc1cc(F)c(-c2c(Cl)nc3ncnn3c2N2CCC(C(F)(F)F)CC2)c(F)c1 [Example 160]

log p	SMILES
2.8	Cc1cc(C)c(-c2c(Cl)nc3ncnn3c2N2CCOCC2)c(C)c1 [Example 161]
2.67	CC1CN(c2c(-c3ccccc3F)c(Cl)nc3ncnn23)CC(C)O1 (centres unmarked) [Example 162]
2.49	Fc1ccccc1-c1c(Cl)nc2ncnn2c1N1CCCC1 [Example 163]
3.01	Fc1ccccc1-c1c(Cl)nc2ncnn2c1N1CCCCC1 [Example 164]
2.68	Fc1ccccc1-c1c(Cl)nc2ncnn2c1N1CCSCC1 [Example 165]
3.23	Fc1ccccc1-c1c(Cl)nc2ncnn2c1N1CCC(C(F)(F)F)CC1 [Example 166]
3.53	Fc1cc(F)c(-c2c(Cl)nc3ncnn3c2N2CCCCC2)c(F)c1 [Example 173]
1.68	CN1CCN(c2c(-c3c(F)cc(C(F)(F)F)cc3Cl)c(Cl)nc3ncnn23)CC1 [Example 174]
3.07	Fc1cc(C(F)(F)F)cc(Cl)c1-c1c(Cl)nc2ncnn2c1N1CCOCC1 [Example 175]
3.5	Fc1cc(C(F)(F)F)cc(Cl)c1-c1c(Cl)nc2ncnn2c1N1CCCC1 [Example 176]
4.03	Fc1cc(C(F)(F)F)cc(Cl)c1-c1c(Cl)nc2ncnn2c1N1CCCCC1 [Example 177]
4.18	Fc1cc(C(F)(F)F)cc(Cl)c1-c1c(Cl)nc2ncnn2c1N1CCC(C(F)(F)F)CC1 [Example 178]
3.85	Fc1cc(C(F)(F)F)cc(Cl)c1-c1c(Cl)nc2ncnn2c1N1CC=CCC1 [Example 179]
4.79	CC1CC(C)CN(c2c(-c3c(F)cc(C(F)(F)F)cc3Cl)c(Cl)nc3ncnn23)C1 (centres unmarked) [Example 180]
4.46	CC1CCCN(c2c(-c3c(F)cc(C(F)(F)F)cc3Cl)c(Cl)nc3ncnn23)C1 (centres unmarked) [Example 181]
4.37	CC1CCN(c2c(-c3c(F)cc(C(F)(F)F)cc3Cl)c(Cl)nc3ncnn23)CC1 [Example 182]
4.23	CC1=CCCN(c2c(-c3c(F)cc(C(F)(F)F)cc3Cl)c(Cl)nc3ncnn23)C1 [Example 183]
2.99	CC1CCCN1c1c(-c2ccc(F)cc2F)c(Cl)nc2ncnn12 (centres unmarked) [Example 184]
2.62	Fc1ccc(-c2c(Cl)nc3ncnn3c2N2CCCC2)c(F)c1 [Example 185]
2.94	Fc1ccc(-c2c(Cl)nc3ncnn3c2N2CC=CCC2)c(F)c1 [Example 186]
3.9	CC1CC(C)CN(c2c(-c3ccc(F)cc3F)c(Cl)nc3ncnn23)C1 (centres unmarked) [Example 187]
3.44	CC1CCCCN1c1c(-c2ccc(F)cc2F)c(Cl)nc2ncnn12 (centres unmarked) [Example 188]

log p	SMILES
3.52	CC1CCCN(c2c(-c3ccc(F)cc3F)c(Cl)nc3ncnn23)C1 (centres unmarked) [Example 189]
3.54	CC1CCN(c2c(-c3ccc(F)cc3F)c(Cl)nc3ncnn23)CC1 [Example 190]
3.8	CC1(C)CCN(c2c(-c3ccc(F)cc3F)c(Cl)nc3ncnn23)CC1 [Example 191]
3.3	CC1=CCCN(c2c(-c3ccc(F)cc3F)c(Cl)nc3ncnn23)C1 [Example 192]
3.34	Fc1ccc(-c2c(Cl)nc3ncnn3c2N2CCC(C(F)(F)F)CC2)c(F)c1 [Example 193]
3.14	Fc1ccc(-c2c(Cl)nc3ncnn3c2N2CCCCC2)c(F)c1 [Example 194]
2.19	Fc1ccc(-c2c(Cl)nc3ncnn3c2N2CCOCC2)c(F)c1 [Example 195]
2.8	Fc1ccc(-c2c(Cl)nc3ncnn3c2N2CCSCC2)c(F)c1 [Example 196]
1.43	CN1CCN(c2c(-c3c(F)c(F)c(F)c(F)c3F)c(Cl)nc3ncnn23)CC1 [Example 197]
3.61	Fc1c(F)c(F)c(-c2c(Cl)nc3ncnn3c2N2CCCCC2)c(F)c1F [Example 198]
2.69	Fc1c(F)c(F)c(-c2c(Cl)nc3ncnn3c2N2CCOCC2)c(F)c1F [Example 199]
2.09	Fc1ccccc1-c1c(Cl)nc2ncnn2c1N1CCOCC1 [Example 200]
2.92	Fc1cc(F)c(-c2c(Cl)nc3ncnn3c2N2CCCCO2)c(F)c1 [Example 201]
3.11	Fc1cccc(F)c1-c1c(Cl)nc2ncnn2c1N1CCCCC1C(F)(F)F (centres unmarked) [Example 202]
2.4	Fc1cc(F)c(-c2c(Cl)nc3ncnn3c2N2CCCO2)c(F)c1 [Example 203]
3.11	Fc1ccc(-c2c(Cl)nc3ncnn3c2N2CCCCO2)c(Cl)c1 [Example 204]
2.84	Fc1ccc(-c2c(Cl)nc3ncnn3c2N2CCCCO2)c(F)c1 [Example 205]
3.33	CC1CN(c2c(-c3c(F)c(F)c(F)c(F)c3F)c(Cl)nc3ncnn23)CC(C)O1 (centres unmarked) [Example 206]
3.11	Fc1c(F)c(F)c(-c2c(Cl)nc3ncnn3c2N2CCCC2)c(F)c1F [Example 207]
4.09	Fc1c(F)c(F)c(-c2c(Cl)nc3ncnn3c2N2CCCCC2C(F)(F)F)c(F)c1F (centres unmarked) [Example 208]
3.29	Fc1c(F)c(F)c(-c2c(Cl)nc3ncnn3c2N2CCSCC2)c(F)c1F [Example 209]
3.2	Fc1ccc(-c2c(Cl)nc3ncnn3c2N2CCCC2C(F)(F)F)c(F)c1 (centres unmarked) [Example 210]

log p	SMILES
2.78	Fc1cccc(Cl)c1-c1c(Cl)nc2ncnn2c1N1CC=CCO1 [Example 243]
2.58	Fc1cccc(Cl)c1-c1c(Cl)nc2ncnn2c1N1CCCC=N1 [Example 244]
3.51	Clc1ccc(-c2c(Cl)nc3ncnn3c2N2CCCCO2)c(Cl)c1 [Example 245]
3.12	CC1C=CCN(c2c(-c3c(F)cc(F)cc3F)c(Cl)nc3ncnn23)O1 (centres unmarked) [Example 246]
2.72	Clc1ccccc1-c1c(Cl)nc2ncnn2c1N1CCCC1 [Example 247]
3.6	CC1CCCCN1c1c(-c2ccccc2Cl)c(Cl)nc2ncnn12 (centres unmarked) [Example 248]
2.98	Fc1ccc(-c2c(Cl)nc3ncnn3c2N2CCCCN2)c(C(F)(F)F)c1 [Example 249]
2.5	Clc1nc2ncnn2c(N2CCCC2)c1-c1ccccc1 [Example 250]
3.05	Clc1nc2ncnn2c(N2CCCCC2)c1-c1ccccc1 [Example 251]
2.03	Clc1nc2ncnn2c(N2CCOCC2)c1-c1ccccc1 [Example 252]
3.47	CC1CCN(c2c(-c3ccccc3)c(Cl)nc3ncnn23)CC1 [Example 253]
2.78	Clc1ccc(-c2c(Cl)nc3ncnn3c2N2CCOCC2)c(Cl)c1 [Example 254]
3.1	CC1CCCN1c1c(-c2ccccc2Cl)c(Cl)nc2ncnn12 (centres unmarked) [Example 255]
3.71	CC1CCN(c2c(-c3ccccc3Cl)c(Cl)nc3ncnn23)CC1 [Example 256]
3.26	Clc1ccccc1-c1c(Cl)nc2ncnn2c1N1CCCCC1 [Example 257]
2.87	CC1CCCN1c1c(-c2ccccc2)c(Cl)nc2ncnn12 (centres unmarked) [Example 258]
3.35	CC1CCCCN1c1c(-c2ccccc2)c(Cl)nc2ncnn12 (centres unmarked) [Example 259]
2.29	Fc1cccc(Cl)c1-c1c(Cl)nc2ncnn2c1N1CCCN1 [Example 260]
2.39	Fc1ccc(-c2c(Cl)nc3ncnn3c2N2CCCN2)c(Cl)c1 [Example 261]
2.32	Fc1cc(F)c(-c2c(Cl)nc3ncnn3c2N2CCCN2)c(F)c1 [Example 262]
2.2	Clc1ccccc1-c1c(Cl)nc2ncnn2c1N1CCCN1 [Example 263]
3.32	CC1CNN(c2c(-c3c(F)cccc3Cl)c(Cl)nc3ncnn23)CC1C (centres unmarked) [Example 264]

Same assay, conditions: read-out: log p

log p	SMILES
3.6	CC1CCN(c2c(-c3c(F)cc(F)cc3F)c(Cl)nc3ncnn23)CC1 [Example 156, 5-Chloro-7-(4-methylpiperidin-1-yl)-6-(2,4,6-trifluorophenyl)[1,2,4]triazolo[1,5-a]-pyrimidine]
